Here are results for 17 compounds from PMC11487905, “Dalbavancin-resistant Staphylococcus epidermidis in vivo selection following a prosthetic joint infection: phenotypic and genomic characterization” (JAC-Antimicrobial Resistance, 2024).

Molecules are shown by their SMILES. Converted amounts (≈) assume the structure as drawn.

The subject of one data set is LR-MDRSE PJI. Type of data set: in vivo, patient. The method, then:
A person underwent a revision of a medial unicompartmental knee arthroplasty to total knee arthroplasty (TKA) for progressive arthritis of the lateral joint.
It was subsequently decided to perform debridement, antibiotics and implant retention (DAIR) with a change of modular implants. […] A treatment shift to dalbavancin 1500 mg IV on Days 35, 49, 71 and 106, combined with doxycycline 200 mg/day for 3 months was initiated.
The evolution was considered unfavourable due to a loco-regional inflammatory syndrome with persistent chronic pain.
A revision of the knee was decided upon, with five bacteriological samples collected. As previously, they tested positive with the same LR-MDRSE strain (Day 371). Ceftaroline (1800 mg/day) and doxycycline (200 mg/day) combination treatment was administered for the next 12 weeks. […] His C-reactive protein level was <4 mg/L (reference range: <4 mg/L). However, suppressive doxycycline therapy was maintained (200 mg/day).

For data set [1], the system named is linezolid-resistant MDR S. epidermidis (LR-MDRSE) isolates. Put plainly: microbe, parasite or virus in culture. Type of data set: cell-based, Staphylococcus epidermidis. To be noted: for Increase of MIC between isolates: STA1 (Day 24) to STA3 (Day 240). The protocol:
Isolates were identified by MALDI-TOF mass spectrometry (VITEK MS, bioMérieux, Marcy-l’Étoile, France). Antibiotic susceptibility testing was performed using the AST-P668 bioMérieux card using a VITEK XL automated system (bioMérieux). Dalbavancin, ceftaroline, delafloxacin, tigecycline and daptomycin MICs were determined using a 0.5 McFarland bacterial inoculum on Mueller–Hinton agar plates with gradient strips (Liofilchem, Roseto degli Abruzzi, Italy) incubated for 24 h at 35°C. Interpretation of the susceptibility was made according to the EUCAST 2022 criteria.

Data set [2] in a line: Dalbavancin therapeutic drug monitoring: plasma trough concentration and extrapolated fAUC0–24/MIC. Type of data set: in vivo, patient. As to conditions: for Plasma trough concentration: 1500 mg IV, LC-MS. The source says:
We therefore used this methodology for fAUC0–24 determination.

For a further data set, the system named is S. aureus. As to conditions: seven isolates of S. aureus (including four vancomycin-intermediate strains); ref 14 (Lepak et al.); cited from earlier work. The source says:
fAUC0–24/MIC best correlates with in vivo efficacy of dalbavancin.[13]

The conditions of data set [3]: cited from earlier work. The method, then: Dalbavancin has a similar mechanism of action and spectrum as vancomycin but with increased potency, higher protein binding and an elimination half-life up to 60 times longer.[10] […] N ... || Because of the long-term duration, dalbavancin therapeutic drug monitoring was performed. Plasma trough concentrations were measured using a validated LC coupled with MS method (Acquity UPLC® BEH C18 and Acquity QDA, Waters, France). […] We therefo ... || Moreover, the clinical infections caused by biofilms poses a serious threat to public health. Staphylococcus spp. biofilms stand out as one of the most prevalent, especially in osteoarticular infection and PJI. […] Thus, new therapeutic strategies targeting biofilms and MDR bacteria are urgently needed.

[4] abbreviates: ceftaroline 1800 mg/day combined with doxycycline 200 mg/day for 12 weeks after knee revision.
Where [5] appears, read: Staphylococcus epidermidis, isolate STA1, Day 24, gradient strip, 0.5 McFarland, Mueller–Hinton agar, 24 h at 35°C.
Setting [6] is: Staphylococcus epidermidis, isolate STA3, Day 240, gradient strip, 0.5 McFarland, Mueller–Hinton agar, 24 h at 35°C.
Setting [7] is: after four injections of dalbavancin 1500 mg IV.
Where [8] appears, read: Staphylococcus epidermidis, 576 h.

For `CCO/N=C(\C(=O)N[C@@H]1C(=O)N2C(C(=O)[O-])=C(Sc3nc(-c4cc[n+](C)cc4)cs3)CS[C@H]12)c1nsc(N)n1` [Ceftaroline], the “Clinical evolution under treatment” value in the data set with LR-MDRSE PJI (setting [4]) is “favourable”. Moreover, the Tolerability of treatment entry in the data set on LR-MDRSE PJI (setting [4]) was “well tolerated”. Further, the “Susceptibility of the strain (in words)” value is “susceptible” in data set [1] (STA1, Day 24) and “susceptible” in data set [1] (STA3, Day 240). Moreover, the MIC in data set [1] (setting [5]) amounted to 1 µg/mL (≈ 1.65 µM); in data set [1] (setting [6]), 0.75 µg/mL (≈ 1.24 µM).

Turning to `CN[C@H]1C(=O)N[C@@H]2Cc3ccc(cc3)Oc3cc4cc(c3O[C@@H]3O[C@H](C(=O)O)[C@@H](O)[C@H](O)[C@H]3NC(=O)CCCCCCCCC(C)C)Oc3ccc(cc3Cl)[C@@H](O)[C@@H]3NC(=O)[C@H](NC(=O)[C@@H]4NC(=O)[C@@H](NC2=O)c2cc(cc(O)c2Cl)Oc2cc1ccc2O)c1ccc(O)c(c1)-c1c(O[C@H]2O[C@H](CO)[C@@H](O)[C@H](O)[C@@H]2O)cc(O)cc1[C@@H](C(=O)NCCCN(C)C)NC3=O` [Dalbavancin], the “Clinical outcome of treatment” value in the data set with LR-MDRSE PJI (dalbavancin 1500 mg IV on Days 35, 49, 71 and 106, combined with doxycycline 200 mg/day for 3 months, after DAIR) was “treatment failure”. Further, the “Increase of MIC between isolates” value in data set [1] (setting [7]) is 4 fold. The “Susceptibility of the strain (in words)” value is recorded as “susceptible” in data set [1] (STA1, Day 24) and “resistant” in data set [1] (STA3, Day 240). Also, the MIC in data set [1] (isolate STA1, Day 24, gradient strip, 0.5 McFarland, Mueller–Hinton agar, 24 h at 35°C) was found to be 0.032 µg/mL (≈ 0.0176 µM); in data set [1] (isolate STA3, Day 240, gradient strip, 0.5 McFarland, Mueller–Hinton agar, 24 h at 35°C), 0.5 µg/mL (≈ 0.275 µM). Also, the Plasma trough concentration in data set [2] (Day 49, 14 days after the last dose) is 18 mg/L; in data set [2] (Day 71, 22 days after the last dose), 23.6 mg/L; in data set [2] (Day 106, 35 days after the last dose) it was 14.6 mg/L. For the same compound, the “Calculated fAUC0–24/MIC ratio” value in data set [2] (Day 49, assuming an MIC of 0.032 mg/L, extrapolated from single trough, 93% protein bound) was 945; in data set [2] (Day 49, assuming an MIC of 0.5 mg/L), 60; in data set [2] (Day 71, assuming an MIC of 0.032 mg/L) it was 1239; in data set [2] (Day 71, assuming an MIC of 0.5 mg/L), 79; in data set [2] (Day 106, assuming an MIC of 0.032 mg/L), 766.5; in data set [2] (Day 106, assuming an MIC of 0.5 mg/L), 49. For the same compound, the “fAUC0–24/MIC value for 1-log kill” value in the data set on S. aureus is 53.3. Further, the “fAUC0–24/MIC value for 2-log kill” value in the data set with S. aureus is 111.1. The “fAUC0–24/MIC value for net stasis” value in the data set with S. aureus was 27.1. Besides, the “Elimination half-life relative to vancomycin” value in data set [3] is listed as “up to 60 times longer”. Further, in data set [3] (plasma), the “Bound to plasma proteins” value was 93%. In data set [3] (prolonged half-life), the Half-life result was “about 14 days”.

As for `CCCCCCCCCC(=O)N[C@@H](Cc1c[nH]c2ccccc12)C(=O)N[C@H](CC(N)=O)C(=O)N[C@@H](CC(=O)O)C(=O)N[C@@H]1C(=O)NCC(=O)N[C@@H](CCCN)C(=O)N[C@@H](CC(=O)O)C(=O)N[C@H](C)C(=O)N[C@@H](CC(=O)O)C(=O)NCC(=O)N[C@H](CO)C(=O)N[C@@H]([C@H](C)CC(=O)O)C(=O)N[C@@H](CC(=O)c2ccccc2N)C(=O)O[C@@H]1C` [Daptomycin], the “Increase of MIC between isolates” value in data set [1] (setting [7]) is given as 6 fold.

As for `Nc1nc(-n2cc(C(=O)O)c(=O)c3cc(F)c(N4CC(O)C4)c(Cl)c32)c(F)cc1F` [Delafloxacin], the MIC in data set [1] (setting [5]) was 1 µg/mL (≈ 2.27 µM); in data set [1] (setting [6]) it was 8 µg/mL (≈ 18.2 µM).

With `CC[C@H]1OC(=O)[C@H](C)[C@@H](O[C@H]2C[C@@](C)(OC)[C@@H](O)[C@H](C)O2)[C@H](C)[C@@H](O[C@@H]2O[C@H](C)C[C@H](N(C)C)[C@H]2O)[C@](C)(O)C[C@@H](C)C(=O)[C@H](C)[C@@H](O)[C@]1(C)O` [Erythromycin], the MIC in data set [1] (Staphylococcus epidermidis) and in data set [1] (setting [8]) was over 4 µg/mL throughout.

Consider `C[C@@H]1O[C@@H]1P(=O)(O)O` [Fosfomycin], for which the MIC in data set [1] (Staphylococcus epidermidis) and in data set [1] (setting [8]) was over 64 µg/mL throughout.

On to `CC(=O)O[C@H]1C[C@@]2(C)[C@@H](C[C@@H](O)[C@H]3[C@@]4(C)CC[C@@H](O)[C@@H](C)[C@@H]4CC[C@@]32C)/C1=C(\CCC=C(C)C)C(=O)O` [Fusidic acid], for which the MIC in data set [1] (Staphylococcus epidermidis) and in data set [1] (setting [8]) was over 4 µg/mL throughout.

As for `CNC(C)C1CCC(N)C(OC2C(N)CC(N)C(OC3OCC(C)(O)C(NC)C3O)C2O)O1` (centres unmarked) [Gentamicin], the MIC in data set [1] (Staphylococcus epidermidis) and in data set [1] (setting [8]) was over 8 µg/mL each time.

On to `CCC[C@@H]1C[C@@H](C(=O)N[C@@H]([C@H]2O[C@H](SC)[C@H](O)[C@@H](O)[C@H]2O)[C@@H](C)O)N(C)C1` [Lincomycin], for which the MIC in data set [1] (Staphylococcus epidermidis) and in data set [1] (setting [8]) was over 8 µg/mL in each case.

Turning to `CC(=O)NC[C@H]1CN(c2ccc(N3CCOCC3)c(F)c2)C(=O)O1` [Linezolid], the “Susceptibility of the strain (in words)” value in data set [1] (STA1, Day 24) is “resistant”. The MIC in data set [1] (Staphylococcus epidermidis) and in data set [1] (setting [8]) was over 4 µg/mL each time.

As to `CC1COc2c(N3CCN(C)CC3)c(F)cc3c(=O)c(C(=O)O)cn1c23` (centres unmarked) [Ofloxacin], the MIC in data set [1] (Staphylococcus epidermidis) and in data set [1] (setting [8]) was over 4 µg/mL throughout.

`Cc1onc(-c2ccccc2)c1C(=O)N[C@@H]1C(=O)N2[C@@H]1SC(C)(C)[C@@H]2C(=O)O` [Oxacillin]: the MIC in data set [1] (Staphylococcus epidermidis) and in data set [1] (setting [8]) was over 2 µg/mL throughout.

As to `CO[C@H]1/C=C/O[C@@]2(C)Oc3c(C)c(O)c4c(O)c(c(/C=N/N5CCN(C)CC5)c(O)c4c3C2=O)NC(=O)/C(C)=C\C=C\[C@H](C)[C@H](O)[C@@H](C)[C@@H](O)[C@@H](C)[C@H](OC(C)=O)[C@@H]1C` [Rifampin], in data set [1] (STA1, Day 24), the “Susceptibility of the strain (in words)” value is listed as “resistant”. Besides, the MIC in data set [1] (Staphylococcus epidermidis) and in data set [1] (setting [8]) was over 2 µg/mL each time.

Take `CN(C)c1cc(NC(=O)CNC(C)(C)C)c(O)c2c1C[C@H]1C[C@H]3[C@H](N(C)C)C(O)=C(C(N)=O)C(=O)[C@@]3(O)C(O)=C1C2=O` [Tigecycline]: the MIC in data set [1] (setting [5]) was 0.19 µg/mL (≈ 0.324 µM); in data set [1] (setting [6]), 0.25 µg/mL (≈ 0.427 µM).

`NC[C@H]1O[C@H](O[C@H]2[C@H](O)[C@@H](O[C@H]3O[C@H](CO)[C@@H](O)[C@H](N)[C@H]3O)[C@H](N)C[C@@H]2N)[C@H](N)C[C@@H]1O` [Tobramycin]: the MIC in data set [1] (Staphylococcus epidermidis) and in data set [1] (setting [8]) was over 8 µg/mL in each case.

For the compound `CN[C@H](CC(C)C)C(=O)N[C@H]1C(=O)N[C@@H](CC(N)=O)C(=O)N[C@H]2C(=O)N[C@H]3C(=O)N[C@H](C(=O)N[C@H](C(=O)O)c4cc(O)cc(O)c4-c4cc3ccc4O)[C@H](O)c3ccc(c(Cl)c3)Oc3cc2cc(c3O[C@@H]2O[C@H](CO)[C@@H](O)[C@H](O)[C@H]2O[C@H]2C[C@](C)(N)[C@H](O)[C@H](C)O2)Oc2ccc(cc2Cl)[C@H]1O` [Vancomycin], in data set [1], the “Increase of MIC between isolates” value was over 5 fold.

As to `COc1cccc(OC)c1C(=O)N[C@@H]1C(=O)N2[C@@H]1SC(C)(C)[C@@H]2C(=O)O` [methicillin], the “Susceptibility of the strain (in words)” value in data set [1] (STA1, Day 24) was “resistant”.
